Tests used:
vaccinia triphosphatase = vaccinia triphosphatase (Vaccinia virus, UniProt P04298); conditions: read-out: Km for ATP; cited from earlier work
[1] = target: T1, yeast RNA triphosphatase Cet1p (Saccharomyces cerevisiae, UniProt O13297); assay: Manganese-dependent ATP hydrolysis by Cet1p; type: biochemical; conditions: truncated Cet1(201-549)p
T1 construct: His-tag; made in house; host or cells: Escherichia coli BL21(DE3)
Method: (§1) (FIG. 8A) Protein titration. Reaction mixtures (10 μl) containing 50 mM Tris HCl (pH 7.0), 5 mM DTT, 2 mM MnCl2, 1 mM [γ^32P]ATP, and either Cet1p, Cet1(201-549)p, or Cet1(246-549)p were incubated for 15 min at 30° C. Pi release is plotted as a function of input protein. (FIG. 8B) Kinetics. Reaction mixtures (100 μl) containing 50 mM Tris HCl (pH 7.0), 5 mM DTT, 2 mM MnCl2, 1 mM [γ^32P]ATP, and either 8, 16, or 32 nM Cet1p were incubated at 30° C. Aliquots (10 μl) were withdrawn at the times indicated and quenched immediately by the addition of […] of 5 M formic acid. Pi release is plotted as a function of time. (FIG. 8C) Hydrolysis of [α^32P]ATP. […] The products were analyzed by TLC. […] An otherwise identical reaction containing 1 mM [γ^32P]ATP was analyzed in parallel; Pi release (●). […]
(§2) The extent of ^32Pi relase from [Υ^32P]ATP during a 15 min reaction was proportional to the amount of input Cetlp protein (FIG. 8A). ^32Pi accumulated with time over 30 min; the rate of reaction varied linearly with Cetlp concentration (FIG. 8B). From a plot of initial rate versus enzyme concentration, a turnover number of 25 s^−1 was calculated. Cetlp catalyzed the quantitative conversion of [α^32P]ATP to [α^32P]ADP. […] No formation of [α^32P]AMP from [α^32P]ATP was detected, even after 20-45 min of incubation, by which time all of the nucleotide had been converted to ADP. […]

[2] = target: T2, yeast RNA triphosphatase Cet1p (Saccharomyces cerevisiae, UniProt O13297); assay: Manganese-dependent ATP hydrolysis by Cet1p; type: biochemical; conditions: full-length Cet1p, 2 mM MnCl2, pH 7.0, 30° C.
T2 construct: His-tag; made in house; host or cells: Escherichia coli BL21(DE3)
T2 sequence (O13297 1-549): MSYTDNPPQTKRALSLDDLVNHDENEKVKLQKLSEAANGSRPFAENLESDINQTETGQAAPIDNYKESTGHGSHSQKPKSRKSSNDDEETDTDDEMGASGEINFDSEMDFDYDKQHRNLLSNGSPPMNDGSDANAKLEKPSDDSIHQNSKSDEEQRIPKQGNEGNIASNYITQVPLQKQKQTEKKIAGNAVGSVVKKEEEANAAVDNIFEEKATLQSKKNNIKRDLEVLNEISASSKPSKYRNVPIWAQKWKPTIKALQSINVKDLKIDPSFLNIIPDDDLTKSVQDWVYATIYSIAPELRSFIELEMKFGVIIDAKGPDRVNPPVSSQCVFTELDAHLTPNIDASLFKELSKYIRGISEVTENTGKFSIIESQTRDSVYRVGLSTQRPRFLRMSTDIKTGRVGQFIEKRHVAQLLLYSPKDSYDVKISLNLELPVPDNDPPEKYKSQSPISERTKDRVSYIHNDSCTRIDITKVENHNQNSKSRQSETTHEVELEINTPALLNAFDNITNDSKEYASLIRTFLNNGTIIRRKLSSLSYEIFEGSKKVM
Method: as §1, §2

LEF-4 = LEF-4 (Autographa californica nuclear polyhedrosis virus, UniProt P41477); conditions: read-out: Km for ATP; cited from earlier work
[3] = target: T3, human cap methyltransferase (Hcm1p) (Homo sapiens, UniProt O43148); type: biochemical
T3 construct: His-tag (pET16b leader) (N); made in house; host or cells: Escherichia coli BL21(DE3)

[4] = target: T4, Mce1(1-210)p RNA triphosphatase domain (Mus musculus, UniProt O55236); conditions: 0.5 mM divalent cation; cited from earlier work
T4 construct: The N-terminal portion of Mce1p from residues 1-210 is an autonomous RNA triphosphatase domain; made in house; host or cells: bacteria
T4 sequence (O55236 1-210): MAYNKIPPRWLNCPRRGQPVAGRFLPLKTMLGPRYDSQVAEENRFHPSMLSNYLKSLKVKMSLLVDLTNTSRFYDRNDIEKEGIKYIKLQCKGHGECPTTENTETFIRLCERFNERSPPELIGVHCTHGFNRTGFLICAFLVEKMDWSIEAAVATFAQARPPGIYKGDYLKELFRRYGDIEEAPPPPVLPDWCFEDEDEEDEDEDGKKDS

T3 sequence (O43148 whole entry): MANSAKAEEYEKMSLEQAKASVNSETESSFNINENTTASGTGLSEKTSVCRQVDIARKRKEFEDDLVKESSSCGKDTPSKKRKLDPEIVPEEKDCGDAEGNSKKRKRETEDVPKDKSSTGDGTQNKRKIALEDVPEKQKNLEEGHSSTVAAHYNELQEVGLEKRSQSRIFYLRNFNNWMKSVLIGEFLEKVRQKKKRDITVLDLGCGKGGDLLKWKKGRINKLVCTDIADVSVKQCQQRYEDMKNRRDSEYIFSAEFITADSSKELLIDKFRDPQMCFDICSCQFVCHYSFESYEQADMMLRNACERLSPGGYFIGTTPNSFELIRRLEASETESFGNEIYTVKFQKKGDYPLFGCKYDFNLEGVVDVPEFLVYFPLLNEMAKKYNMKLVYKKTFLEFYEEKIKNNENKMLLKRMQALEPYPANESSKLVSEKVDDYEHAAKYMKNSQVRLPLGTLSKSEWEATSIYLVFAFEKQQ
LEF-4, sequence (P41477 whole entry): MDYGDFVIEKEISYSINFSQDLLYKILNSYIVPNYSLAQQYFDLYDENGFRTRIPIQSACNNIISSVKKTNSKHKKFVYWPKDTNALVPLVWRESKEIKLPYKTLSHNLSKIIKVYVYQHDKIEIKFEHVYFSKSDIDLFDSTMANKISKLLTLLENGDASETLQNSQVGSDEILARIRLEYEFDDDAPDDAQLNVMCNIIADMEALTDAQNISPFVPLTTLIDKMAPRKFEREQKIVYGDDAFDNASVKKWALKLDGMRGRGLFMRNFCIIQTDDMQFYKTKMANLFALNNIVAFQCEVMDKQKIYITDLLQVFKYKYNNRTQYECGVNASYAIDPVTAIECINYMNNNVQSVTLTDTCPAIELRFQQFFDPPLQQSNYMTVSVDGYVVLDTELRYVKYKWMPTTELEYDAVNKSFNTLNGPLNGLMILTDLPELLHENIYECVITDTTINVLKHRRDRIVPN

Nc1ncnc2c1ncn2[C@@H]1O[C@H](COP(=O)(O)OP(=O)(O)OP(=O)(O)O)[C@@H](O)[C@H]1O [ATP]
Km (vaccinia triphosphatase): 800 µM
Km [1]: 3.3 µM
Km [2]: 2.8 µM
Km (LEF-4): 43 µM

Nc1ncnc2c1ncn2[C@@H]1O[C@H](CSCC[C@H](N)C(=O)O)[C@@H](O)[C@H]1O [AdoHcy, S-adenosylhomocysteine]
effect on cap methylation (FIG. 9, lane 4) ([3]; 50 μM AdoMet plus 500 μM AdoHcy): partially inhibitory
reduction of cap methylation ([3]; 100 μM AdoHcy in the presence of 10 μM AdoMet): 80%

C[S+](CC[C@H](N)C(=O)[O-])C[C@H]1O[C@@H](n2cnc3c(N)ncnc32)[C@H](O)[C@@H]1O (stereo partly shown) [AdoMet, S-adenosylmethionine]
AdoMet concentration giving half-maximal activity ([3]; peak glycerol gradient fraction of Hcm1p): ~25 µM

[Cl-].[Cl-].[Mg+2] [MgCl2]
inhibition of RNA triphosphatase activity [4]: 75%
effect of magnesium on cap methylation ([3]; 1 mM magnesium): reduced by an order of magnitude

[Cl][Mn][Cl] [MnCl2]
inhibition of RNA triphosphatase activity [4]: 75%

Reference: US6420163B1, “Pharmacological targeting of mRNA cap formation” (priority 1998, dated 2002)
